Assay results as given in the supplement of paper PMC10307832.

Assays:
Assay in all cases: relative viability (nuclei count vs DMSO), 5 days (fraction); higher = more cells survive
VX-11e + Dasatinib = compound: CC1=CN=C(N=C1C2=CNC(=C2)C(=O)N[C@H](CO)C3=CC(=CC=C3)Cl)NC4=C(C=C(C=C4)F)Cl [VX-11e] + Cc1nc(Nc2ncc(C(=O)Nc3c(C)cccc3Cl)s2)cc(N2CCN(CCO)CC2)n1 [Dasatinib] (partner 0.075 µM)
Method in brief: (§1)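 Relative viability was taken as the ratio of nuclei in treated wells to nuclei in vehicle wells. Lung cancer cell lines in 1536-well plates received compounds by pin tool one day after seeding, either one drug alone or a fixed anchor-drug dose plus five library-drug doses (not always all listed) in √10 steps. Nuclei were counted on 4× images after 5 days of treatment, and values are medians of duplicate plates.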

VX-11e + Alpelisib = compound: CC1=CN=C(N=C1C2=CNC(=C2)C(=O)N[C@H](CO)C3=CC(=CC=C3)Cl)NC4=C(C=C(C=C4)F)Cl [VX-11e] + Cc1nc(NC(=O)N2CCC[C@H]2C(N)=O)sc1-c1ccnc(C(C)(C)C(F)(F)F)c1 [Alpelisib] (partner 2 µM)
Method in brief: as §1

VX-11e + Palbociclib = compound: CC1=CN=C(N=C1C2=CNC(=C2)C(=O)N[C@H](CO)C3=CC(=CC=C3)Cl)NC4=C(C=C(C=C4)F)Cl [VX-11e] + CC(=O)c1c(C)c2cnc(Nc3ccc(N4CCNCC4)cn3)nc2n(C2CCCC2)c1=O [Palbociclib] (partner 0.5 µM)
Method in brief: as §1

VX-11e + Bortezomib = compound: CC1=CN=C(N=C1C2=CNC(=C2)C(=O)N[C@H](CO)C3=CC(=CC=C3)Cl)NC4=C(C=C(C=C4)F)Cl [VX-11e] + CC(C)C[C@H](NC(=O)[C@H](Cc1ccccc1)NC(=O)c1cnccn1)B(O)O [Bortezomib] (partner 0.002 µM)
Method in brief: as §1

Cell Line | relative viability (VX-11e + Dasatinib; first compound 0.04 µM) | relative viability (VX-11e + Dasatinib; first compound 0.1265 µM) | relative viability (VX-11e + Dasatinib; first compound 1.265 µM) | relative viability (VX-11e + Dasatinib; first compound 4 µM) | relative viability (VX-11e + Alpelisib; first compound 0.04 µM) | relative viability (VX-11e + Alpelisib; first compound 0.1265 µM) | relative viability (VX-11e + Alpelisib; first compound 1.265 µM) | relative viability (VX-11e + Alpelisib; first compound 4 µM) | relative viability (VX-11e + Palbociclib; first compound 0.04 µM) | relative viability (VX-11e + Palbociclib; first compound 0.1265 µM) | relative viability (VX-11e + Palbociclib; first compound 1.265 µM) | relative viability (VX-11e + Palbociclib; first compound 4 µM) | relative viability (VX-11e + Bortezomib; first compound 0.04 µM) | relative viability (VX-11e + Bortezomib; first compound 0.1265 µM) | relative viability (VX-11e + Bortezomib; first compound 1.265 µM) | relative viability (VX-11e + Bortezomib; first compound 4 µM) | relative viability (VX-11e + Dasatinib; first compound 0.4 µM) | relative viability (VX-11e + Alpelisib; first compound 0.4 µM) | relative viability (VX-11e + Palbociclib; first compound 0.4 µM) | relative viability (VX-11e + Bortezomib; first compound 0.4 µM)
HCC-366 | 0.736 | 0.612 | 0.434 | 0.241 | 0.446 | 0.431 | 0.239 | 0.0901 | 0.385 | 0.311 | 0.314 | 0.163 | 0.959 | 0.895 | 0.864 | 0.759 | – | – | – | –
UMC-11 | 0.44 | 0.42 | 0.587 | 0.464 | 0.921 | 1 | 0.97 | 0.973 | – | 0.309 | 0.267 | 0.318 | 0.562 | 0.668 | 0.598 | 0.551 | 0.439 | 0.962 | 0.283 | 0.714
NCI-H2023 | 0.647 | 0.508 | 0.439 | 0.234 | 0.59 | 0.611 | 0.458 | 0.257 | 0.336 | 0.338 | 0.203 | 0.111 | 0.993 | 1.03 | 0.394 | 0.418 | 0.502 | 0.572 | 0.251 | 0.098
EKVX | 0.687 | 0.482 | 0.489 | 0.247 | 0.953 | 0.869 | 0.752 | 0.335 | 0.397 | 0.378 | 0.368 | 0.19 | 1.06 | 0.977 | 1 | 0.406 | 0.401 | 0.984 | 0.452 | 0.951
NCI-H1975 | 0.373 | 0.29 | 0.254 | 0.171 | 0.649 | 0.639 | 0.508 | 0.191 | 0.543 | 0.411 | 0.391 | 0.17 | 0.475 | 0.372 | 0.281 | 0.178 | 0.195 | 0.591 | 0.169 | 0.301
NCI-H1993 | 0.442 | 0.54 | 1.46 | 0.504 | – | 0.673 | 0.618 | 0.649 | – | 0.708 | 0.559 | 0.503 | – | 1.04 | 0.742 | 0.765 | 0.523 | – | 0.607 | –
LU99A | 0.505 | 0.562 | 0.252 | 0.199 | 0.423 | 0.38 | 0.209 | 0.175 | 0.334 | 0.373 | 0.326 | 0.228 | 0.965 | 0.984 | 0.284 | 0.239 | 0.261 | 0.574 | 0.443 | 0.769
NCI-H322M | 0.224 | 0.208 | 0.252 | 0.225 | 0.709 | – | 0.729 | 0.53 | 0.45 | 0.417 | 0.453 | 0.462 | 1.08 | – | 1.09 | 0.987 | 0.27 | 0.82 | 0.539 | 1.24
NCI-H2347 | 0.221 | 0.314 | 0.232 | 0.197 | 1.15 | 0.991 | 0.618 | 0.379 | 0.475 | 0.405 | 0.398 | 0.379 | 0.87 | 0.801 | 0.738 | 0.435 | 0.126 | 1 | 0.481 | 0.815
HOP-62 | 0.685 | 0.652 | 0.457 | 0.242 | 1.05 | 0.921 | 0.866 | 0.502 | 0.505 | 0.451 | 0.434 | 0.348 | 0.688 | 0.963 | 0.214 | 0.515 | 0.663 | 0.892 | 0.464 | 0.553
NCI-H460 | 0.476 | 0.515 | 0.266 | 0.0901 | 0.49 | 0.359 | 0.0408 | 0.0113 | 0.198 | 0.195 | 0.0404 | 0.0179 | 1.15 | 0.986 | 0.648 | 0.102 | 0.23 | 0.39 | 0.146 | 0.91
HCC-78 | – | 0.412 | 0.382 | 0.44 | 0.313 | 0.348 | 0.276 | 0.312 | 0.481 | 0.359 | 0.501 | 0.431 | 0.565 | 0.491 | 0.227 | 0.441 | 0.411 | 0.381 | 0.466 | 0.505
